Test results taken from PubChem BioAssay (NCI).
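These data come from cells grown in 96-well plates and exposed to compound for 48 hours at five concentrations. Here, GI50 denotes the concentration required for 50% inhibition of growth. TGI: concentration producing complete growth inhibition.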

Key:
Experiment in all cases: DTP human tumour cell line panel, 48 h
[1] = test system: PC-3 prostate
[2] = test system: NCI-H23 lung
[3] = test system: HL-60(TB) leukemia
[4] = test system: HCT-116 colon
[5] = test system: CAKI-1 renal
[6] = test system: SK-MEL-28 melanoma
[7] = test system: OVCAR-8 ovarian
[8] = test system: SF-268 CNS
[9] = test system: SF-539 CNS
[10] = test system: OVCAR-5 ovarian
[11] = test system: CCRF-CEM leukemia
[12] = test system: M14 melanoma
[13] = test system: RXF 393 renal
[14] = test system: KM12 colon
[15] = test system: SK-MEL-2 melanoma
[16] = test system: UO-31 renal
[17] = test system: NCI-H226 lung
[18] = test system: IGROV1 ovarian
[19] = test system: MDA-MB-435
[20] = test system: U251 CNS
[21] = test system: 786-0 renal
[22] = test system: A498 renal
[23] = test system: UACC-257 melanoma
[24] = test system: RPMI-8226 leukemia
[25] = test system: T-47D breast
[26] = test system: SW-620 colon
[27] = test system: HS 578T breast
[28] = test system: HOP-62 NSCLC
[29] = test system: SN12C renal
[30] = test system: COLO 205 colon
[31] = test system: OVCAR-4 ovarian
[32] = test system: MALME-3M melanoma
[33] = test system: SNB-19 CNS
[34] = test system: SK-OV-3 ovarian
[35] = test system: NCI-H522 lung
[36] = test system: NCI/ADR-RES ovarian
[37] = test system: MOLT-4 leukemia
[38] = test system: LOX IMVI melanoma
[39] = test system: BT-549 breast
[40] = test system: TK-10 renal
[41] = test system: NCI-H460 lung
[42] = test system: SNB-75 CNS
[43] = test system: MDA-MB-231 breast
[44] = test system: HCT-15 colon
[45] = test system: A549 NSCLC
[46] = test system: SR leukemia
[47] = test system: ACHN renal
[48] = test system: SK-MEL-5 melanoma
[49] = test system: HT29 colon
[50] = test system: SF-295 CNS
[51] = test system: MCF7 breast
[52] = test system: HCC-2998 colon
[53] = test system: K-562 leukemia
[54] = test system: DU-145 prostate
[55] = test system: UACC-62 melanoma
[56] = test system: OVCAR-3 ovarian

O=C(Nc1ccccc1)Nc1cccc(-n2cc(-c3ccncc3)c(-c3ccc(O)c(Cl)c3)n2)c1
GI50 [1]: 3.19 µM | TGI [1]: 19.6 µM | GI50 [2]: 3.82 µM | TGI [2]: 21.4 µM | GI50 [3]: 2.32 µM | TGI [3]: 5.36 µM | GI50 [4]: 3.41 µM | TGI [4]: 13.9 µM | GI50 [5]: 2.92 µM | TGI [5]: 14.3 µM | GI50 [6]: 3.27 µM | TGI [6]: 18.6 µM | GI50 [7]: 3.27 µM | TGI [7]: 21 µM | GI50 [8]: 5.73 µM | TGI [8]: 68.8 µM | GI50 [9]: 1.96 µM | TGI [9]: 4.5 µM | GI50 [10]: 5.39 µM | TGI [10]: 31.5 µM | GI50 [11]: 3.22 µM | TGI [11]: 27.5 µM | GI50 [12]: 3.1 µM | TGI [12]: 9.47 µM | GI50 [13]: 2.43 µM | TGI [13]: 9.63 µM | GI50 [14]: 3.3 µM | TGI [14]: 10.5 µM | GI50 [15]: 2.49 µM | TGI [15]: 5.63 µM | GI50 [16]: 3.43 µM | TGI [16]: 31.8 µM | GI50 [17]: 7.35 µM | TGI [17]: > 100 µM | GI50 [18]: 6.06 µM | TGI [18]: 41.4 µM | GI50 [19]: 3.03 µM | TGI [19]: 17 µM | GI50 [20]: 2.17 µM | TGI [20]: 6.06 µM | GI50 [21]: 3.24 µM | TGI [21]: 11.7 µM | GI50 [22]: 2.5 µM | TGI [22]: 8.37 µM | GI50 [23]: 2.12 µM | TGI [23]: 4.91 µM | GI50 [24]: 2.35 µM | TGI [24]: 6.13 µM | GI50 [25]: 4.34 µM | TGI [25]: 25.8 µM | GI50 [26]: 3.67 µM | TGI [26]: 38.4 µM | GI50 [27]: 3.24 µM | TGI [27]: > 100 µM | GI50 [28]: 4.93 µM | TGI [28]: 53.6 µM | GI50 [29]: 4.13 µM | TGI [29]: > 100 µM | GI50 [30]: 4.95 µM | TGI [30]: 21 µM | GI50 [31]: 3.45 µM | TGI [31]: 25.7 µM | GI50 [32]: 2.25 µM | TGI [32]: 6.02 µM | GI50 [33]: 6.27 µM | TGI [33]: > 100 µM | GI50 [34]: 6.02 µM | TGI [34]: 40.7 µM | GI50 [35]: 2.26 µM | TGI [35]: 6.73 µM | GI50 [36]: 6.49 µM | TGI [36]: 82.6 µM | GI50 [37]: 2.92 µM | TGI [37]: 9.03 µM | GI50 [38]: 2.54 µM | TGI [38]: 25.6 µM | GI50 [39]: 3.29 µM | TGI [39]: 12.7 µM | GI50 [40]: 6.91 µM | TGI [40]: 54.6 µM | GI50 [41]: 3.24 µM | TGI [41]: 17.1 µM | GI50 [42]: 1.68 µM | TGI [42]: 10.7 µM | GI50 [43]: 1.98 µM | TGI [43]: 5.23 µM | GI50 [44]: 2.84 µM | TGI [44]: > 100 µM | GI50 [45]: 3.64 µM | TGI [45]: > 100 µM | GI50 [46]: 2.35 µM | TGI [46]: 6.29 µM | GI50 [47]: 2.95 µM | TGI [47]: 34.7 µM | GI50 [48]: 1.78 µM | TGI [48]: 3.35 µM | GI50 [49]: 2.27 µM | TGI [49]: 4.45 µM | GI50 [50]: 2.1 µM | TGI [50]: 4.73 µM | GI50 [51]: 2.75 µM | TGI [51]: 17.8 µM | GI50 [52]: 3.19 µM | TGI [52]: 9.79 µM | GI50 [53]: 3.59 µM | TGI [53]: 13.4 µM | GI50 [54]: 5.66 µM | TGI [54]: > 100 µM | GI50 [55]: 3.73 µM | TGI [55]: 15.5 µM

O=C1OCc2c1cc(F)cc2[N+](=O)[O-]
GI50 [1]: > 100 µM | TGI [1]: > 100 µM | GI50 [2]: > 100 µM | TGI [2]: > 100 µM | GI50 [3]: > 100 µM | TGI [3]: > 100 µM | GI50 [4]: > 100 µM | TGI [4]: > 100 µM | GI50 [5]: > 100 µM | TGI [5]: > 100 µM | GI50 [6]: > 100 µM | TGI [6]: > 100 µM | GI50 [7]: > 100 µM | TGI [7]: > 100 µM | GI50 [8]: > 100 µM | TGI [8]: > 100 µM | GI50 [9]: > 100 µM | TGI [9]: > 100 µM | GI50 [10]: > 100 µM | TGI [10]: > 100 µM | GI50 [11]: > 100 µM | TGI [11]: > 100 µM | GI50 [12]: > 100 µM | TGI [12]: > 100 µM | GI50 [13]: > 100 µM | TGI [13]: > 100 µM | GI50 [14]: > 100 µM | TGI [14]: > 100 µM | GI50 [15]: > 100 µM | TGI [15]: > 100 µM | GI50 [16]: > 100 µM | TGI [16]: > 100 µM | GI50 [17]: > 100 µM | TGI [17]: > 100 µM | GI50 [18]: > 100 µM | TGI [18]: > 100 µM | GI50 [19]: > 100 µM | TGI [19]: > 100 µM | GI50 [20]: > 100 µM | TGI [20]: > 100 µM | GI50 [21]: > 100 µM | TGI [21]: > 100 µM | GI50 [22]: > 100 µM | TGI [22]: > 100 µM | GI50 [23]: > 100 µM | TGI [23]: > 100 µM | GI50 [24]: > 100 µM | TGI [24]: > 100 µM | GI50 [25]: > 100 µM | TGI [25]: > 100 µM | GI50 [26]: > 100 µM | TGI [26]: > 100 µM | GI50 [27]: > 100 µM | TGI [27]: > 100 µM | GI50 [28]: > 100 µM | TGI [28]: > 100 µM | GI50 [29]: > 100 µM | TGI [29]: > 100 µM | GI50 [30]: 47.6 µM | TGI [30]: > 100 µM | GI50 [31]: > 100 µM | TGI [31]: > 100 µM | GI50 [32]: 26.8 µM | TGI [32]: 69.6 µM | GI50 [33]: > 100 µM | TGI [33]: > 100 µM | GI50 [34]: > 100 µM | TGI [34]: > 100 µM | GI50 [35]: > 100 µM | TGI [35]: > 100 µM | GI50 [36]: > 100 µM | TGI [36]: > 100 µM | GI50 [37]: > 100 µM | TGI [37]: > 100 µM | GI50 [38]: > 100 µM | TGI [38]: > 100 µM | GI50 [39]: > 100 µM | TGI [39]: > 100 µM | GI50 [41]: > 100 µM | TGI [41]: > 100 µM | GI50 [42]: > 100 µM | TGI [42]: > 100 µM | GI50 [43]: > 100 µM | TGI [43]: > 100 µM | GI50 [44]: > 100 µM | TGI [44]: > 100 µM | GI50 [45]: > 100 µM | TGI [45]: > 100 µM | GI50 [46]: > 100 µM | TGI [46]: > 100 µM | GI50 [47]: > 100 µM | TGI [47]: > 100 µM | GI50 [48]: > 100 µM | TGI [48]: > 100 µM | GI50 [49]: > 100 µM | TGI [49]: > 100 µM | GI50 [50]: > 100 µM | TGI [50]: > 100 µM | GI50 [51]: > 100 µM | TGI [51]: > 100 µM | GI50 [52]: > 100 µM | TGI [52]: > 100 µM | GI50 [53]: > 100 µM | TGI [53]: > 100 µM | GI50 [54]: > 100 µM | TGI [54]: > 100 µM | GI50 [56]: > 100 µM | TGI [56]: > 100 µM | GI50 [55]: > 100 µM | TGI [55]: > 100 µM
